Experimental data published in patent publication US9872875B2, “Component and method for treating viral disease” (Institut Pasteur of Shanghai, Chinese Academy of Sciences, priority 2012, dated 2018).
Like-named read-outs stand apart in the source and are kept apart here.

Legend:
[1] = system: EV71; assay: Effects of other antagonists and agonists on EV71 (Table 9); type: cell-based, Enterovirus 71; design: key: “NO” indicates there is negative
[2] = molecular target: T1, P2X4 receptor (Homo sapiens, UniProt Q99571); conditions: cited from earlier work
T1 sequence (Q99571 1-388): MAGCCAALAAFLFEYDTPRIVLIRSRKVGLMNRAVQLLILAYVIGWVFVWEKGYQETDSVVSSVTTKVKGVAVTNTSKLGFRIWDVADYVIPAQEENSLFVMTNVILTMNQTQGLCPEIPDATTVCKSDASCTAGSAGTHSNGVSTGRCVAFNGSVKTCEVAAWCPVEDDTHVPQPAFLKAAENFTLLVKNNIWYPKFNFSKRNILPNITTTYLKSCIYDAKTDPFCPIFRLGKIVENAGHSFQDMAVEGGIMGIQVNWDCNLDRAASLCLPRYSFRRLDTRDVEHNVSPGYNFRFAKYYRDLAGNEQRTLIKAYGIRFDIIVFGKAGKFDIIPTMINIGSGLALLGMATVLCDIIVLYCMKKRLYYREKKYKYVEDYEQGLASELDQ

[3] = system: EV71; assay: Inhibition of EV71 replication in RD cells at 0.1, 1, 10 and 100 μM (CPE, crystal violet); type: cell-based, Enterovirus 71; design: key to Inhibition of EV71 replication: −: no activity; conditions: Table 8, agonists
Experimental: Inhibitory effect of each P2X receptor antagonists and agonists on EV71 replication was measured at 0.1, 1, 10, and 100 μM. Specific procedures refer to “1” of Example 1. after infection, however, cells need to be incubated for 3˜4 days, stained with crystal violet, and observed under optical microscope to determine whether or not CPE (cytopathic effect) was present. In addition, the effect of compounds at each concentration on cytotoxicity to RD cells was determined. After culturing RD cells in various concentrations of compounds for 3˜4 days, stained with crystal violet, and observed under optical microscope to observe whether or not cell layer was damaged. Compounds capable of protecting cells from infection without damage of healthy cell layer can inhibit EV71 replication in RD cells.

## Ivermectine
[1]
  EV71 Log10 reduction: NO
[2]; Table 8, agonists
  P2X receptors 4: ++ (++: activating concentration 1~10 μM)
[2]; Table 9, modulator, no key printed for this class
  P2X receptors 4: ✓ ✓ ✓
[3]
  Inhibition of EV71 replication: −
